SMILES strings stand for the structures. Where only a bound is given, the exact number is not on record here.

One assay concerns M-07e cells. The experiment in a line: M-07e cellular assay (SCF-mediated cell proliferation). The format is cell-based. The following applies: Homo sapiens, 72 hours, CellTiter Glo. The essentials: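 EC50 values reflect inhibition of SCF-driven proliferation, with SCF at EC90 and a 72 h compound exposure, measured as CellTiter Glo luminescence. Growth is scaled between no-SCF (0%) and untreated (100%) wells.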
In general terms: Cellular ATP, detected with luciferase, serves as a proxy for viable cell number.

For assay [1], the target named is Recombinant human c-KIT kinase (Homo sapiens (Human), UniProt P10721). Briefly: c-KIT kinase chemiluminescence assay (ADP-Glo). The format is biochemical. The following applies: ATP 50 μM. In outline:
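Recombinant human c-KIT preincubated 30 min at RT in 40 mM Tris pH 7.5, 20 mM MgCl2, 0.1 mg/mL BSA, 50 μM DTT, then reacted 2 h at RT with ATP and polyEY substrate. ADP-Glo luminescence readout; activity normalized to high/low controls, IC50 and Hill coefficient from inhibitor-versus-normalized-response fit.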
For orientation: In ADP-Glo the light output rises with the ADP produced.

Sequence of Recombinant human c-KIT kinase (P10721 26-976): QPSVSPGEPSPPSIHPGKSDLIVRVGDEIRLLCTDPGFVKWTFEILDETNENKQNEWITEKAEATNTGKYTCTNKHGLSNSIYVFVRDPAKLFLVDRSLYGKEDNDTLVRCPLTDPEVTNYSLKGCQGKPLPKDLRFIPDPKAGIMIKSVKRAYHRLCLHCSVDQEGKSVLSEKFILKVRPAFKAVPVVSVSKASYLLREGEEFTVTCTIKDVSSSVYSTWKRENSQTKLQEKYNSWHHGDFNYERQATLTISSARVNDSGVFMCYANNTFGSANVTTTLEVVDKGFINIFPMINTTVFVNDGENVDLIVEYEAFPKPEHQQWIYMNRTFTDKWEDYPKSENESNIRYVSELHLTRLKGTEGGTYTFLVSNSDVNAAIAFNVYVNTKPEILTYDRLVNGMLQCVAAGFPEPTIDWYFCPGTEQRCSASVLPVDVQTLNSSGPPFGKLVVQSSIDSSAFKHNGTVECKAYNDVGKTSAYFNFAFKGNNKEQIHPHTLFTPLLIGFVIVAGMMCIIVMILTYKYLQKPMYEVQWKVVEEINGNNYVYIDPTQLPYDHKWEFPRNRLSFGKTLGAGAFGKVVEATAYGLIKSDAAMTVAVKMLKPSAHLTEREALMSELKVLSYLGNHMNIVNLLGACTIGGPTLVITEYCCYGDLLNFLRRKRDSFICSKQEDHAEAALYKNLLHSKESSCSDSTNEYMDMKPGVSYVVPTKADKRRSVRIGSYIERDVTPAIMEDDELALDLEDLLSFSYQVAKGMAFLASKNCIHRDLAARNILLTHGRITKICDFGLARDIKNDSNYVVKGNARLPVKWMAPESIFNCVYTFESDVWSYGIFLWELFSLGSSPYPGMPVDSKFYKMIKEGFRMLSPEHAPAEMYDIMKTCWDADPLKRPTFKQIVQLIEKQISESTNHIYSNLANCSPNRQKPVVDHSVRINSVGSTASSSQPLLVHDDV

What is called EC50 is the midpoint of the concentration-response curve. A word on the IC50: it is the point on the concentration scale where inhibition reaches its midpoint. As to `Cc1ccc(-c2cnc(C3CC3)nc2)cc1NC(=O)c1cnn2ccc(N3CC4(COC4)C3)cc12` [Example 340], the EC50 in the assay on M-07e cells is < 100 nM. In addition, in assay [1], the half-maximal inhibitory concentration (IC50) was < 100 nM.

Take `Cc1ccc(-c2cnc(C3CC3)cn2)cc1NC(=O)c1cnn2ccc(N3CC4(COC4)C3)cc12` [Example 341]: the EC50 with M-07e cells was < 100 nM. Also, the half-maximal inhibitory concentration (IC50) in assay [1] was < 100 nM.

As to `Cc1ccc(-c2ccc(C3CC3)nc2)cc1NC(=O)c1cnn2ccc(N3CC4(COC4)C3)cc12` [Example 342], the EC50 in the assay with M-07e cells is < 100 nM. Further, the IC50 in assay [1] was < 100 nM.

With `Cc1ccc(-c2ccc(C3CC3)nn2)cc1NC(=O)c1cnn2ccc(N3CC4(COC4)C3)cc12` [Example 343], the EC50 with M-07e cells was < 100 nM. In assay [1], the IC50 was < 100 nM.

As to `Cc1ccc(-c2ncc(C(F)F)cn2)cc1NC(=O)c1cnn2ccc(N3CC4(COC4)C3)cc12` [Example 344], the EC50 in the assay on M-07e cells was < 100 nM. In addition, the concentration for half-maximal inhibition (IC50) in assay [1] is 100 to 1000 nM.

On to `Cc1ccc(-c2ncc(C(C)C)cn2)cc1NC(=O)c1cnn2ccc(N3CC4(COC4)C3)cc12` [Example 345], for which the 50% effective concentration (EC50) in the assay on M-07e cells was < 100 nM. Moreover, the concentration for half-maximal inhibition (IC50) in assay [1] is < 100 nM.

`Cc1sc(-c2ncc(C3CC3)cn2)cc1NC(=O)c1cnn2ccc(N3CC4(C3)CC(O)(C(F)F)C4)cc12` [Example 346]: the half-maximal effective concentration (EC50) in the assay on M-07e cells was < 100 nM. The IC50 in assay [1] is < 100 nM.

Compound `Cc1sc(-c2nccc(C3CC3)n2)cc1NC(=O)c1cnn2ccc(N3CC4(C3)CC(O)(C(F)F)C4)cc12` [Example 347] registered an EC50 in the assay with M-07e cells of 100 to 1000 nM. Also, the 50% inhibitory concentration (IC50) in assay [1] lay within 100 to 1000 nM.

Consider `Cc1ccc(-c2ncc(OC(F)(F)F)cn2)cc1NC(=O)c1cnn2ccc(N3CC4(COC4)C3)cc12` [Example 348], for which the concentration giving a half-maximal response (EC50) with M-07e cells is < 100 nM. Also, in assay [1], the IC50 is < 100 nM.

Regarding `Cc1ccc(-c2ccc(C(C)C)cn2)cc1NC(=O)c1cnn2ccc(N3CC4(COC4)C3)cc12` [Example 349], the 50% effective concentration (EC50) with M-07e cells was < 100 nM. Further, the IC50 in assay [1] is < 100 nM.

As for `O=C(Nc1cc(-c2ccc(C3CC3)cn2)ccc1Cl)c1cnn2ccc(N3CC4(COC4)C3)cc12` [Example 350], the concentration for a half-maximal effect (EC50) in the assay on M-07e cells was > 1000 nM. Moreover, in assay [1], the IC50 is > 1000 nM.

Regarding `Cc1ccc(-c2ccc(C3CC3)cn2)cc1NC(=O)c1cnn2ccc(N3CC4(C3)CC(O)(C(F)F)C4)cc12` [Example 351], the EC50 with M-07e cells is < 100 nM. For the same compound, the IC50 in assay [1] is < 100 nM.

With `O=C(Nc1cc(-c2ccc(C3CC3)cn2)ccc1Cl)c1cnn2ccc(N3CC4(C3)CC(O)(C(F)F)C4)cc12` [Example 352], the 50% effective concentration (EC50) in the assay on M-07e cells is > 1000 nM. The half-maximal inhibitory concentration (IC50) in assay [1] was > 1000 nM.

Take `Cc1ccc(-c2cnc(C3CC3)nc2)cc1NC(=O)c1cnn2ccc(N3CC4(C3)CC(O)(C(F)F)C4)cc12` [Example 353]: the EC50 with M-07e cells is < 100 nM. Moreover, the IC50 in assay [1] is < 100 nM.

Turning to `Cc1ccc(-c2cnc(N3CC(O)(C(F)(F)F)C3)nc2)cc1NC(=O)c1cnn2ccc(N3CC4(COC4)C3)cc12` [Example 354], the EC50 in the assay on M-07e cells was < 100 nM. For the same compound, the 50% inhibitory concentration (IC50) in assay [1] is < 100 nM.

Regarding `Cc1sc(-c2cnc(C3CC3)nc2)cc1NC(=O)c1cnn2ccc(N3CC4(C3)CC(O)(C(F)F)C4)cc12` [Example 355], in the assay on M-07e cells, the EC50 is < 100 nM. In addition, the IC50 in assay [1] lay within 100 to 1000 nM.

With `Cc1ncc(-c2ccc(C3CC3)cn2)cc1NC(=O)c1cnn2ccc(N3CC4(C3)CC(O)(C(F)F)C4)cc12` [Example 356], in the assay with M-07e cells, the 50% effective concentration (EC50) was < 100 nM. Besides, in assay [1], the 50% inhibitory concentration (IC50) was < 100 nM.

With `Cc1ncc(-c2ccc(C3CC3)cn2)cc1NC(=O)c1cnn2ccc(N3CC4(COC4)C3)cc12` [Example 357], the 50% effective concentration (EC50) in the assay with M-07e cells is < 100 nM. In assay [1], the IC50 fell in the range of 100 to 1000 nM.

With `Cc1ncc(-c2ncc(OC(F)(F)F)cn2)cc1NC(=O)c1cnc(-c2ccc3c(c2)CC(=O)N3)o1` [Example 358, N-(2-methyl-5-(5-(trifluoromethoxy)pyrimidin-2-yl)pyridin-3-yl)-2-(2-oxoindolin-5-yl)oxazole-5-carboxamide], the EC50 in the assay with M-07e cells is 100 to 1000 nM. For the same compound, in assay [1], the half-maximal inhibitory concentration (IC50) was > 1000 nM.

The compound `Cc1ccc(-c2ncc(OC(F)F)cn2)cc1NC(=O)c1cnc(-c2ccc3c(c2)CC(=O)N3)o1` [Example 359] yielded an EC50 with M-07e cells of 100 to 1000 nM. Also, the IC50 in assay [1] fell in the range of 100 to 1000 nM.

`Cc1ccc(-c2ncc(OC(F)(F)F)cn2)cc1NC(=O)c1cnc(-c2ccc3c(c2)CC(=O)N3)o1` [Example 360]: the concentration for a half-maximal effect (EC50) with M-07e cells lay in the range of 100 to 1000 nM. Further, in assay [1], the half-maximal inhibitory concentration (IC50) is 100 to 1000 nM.

As for `Cc1ncc(-c2ncc(C3CC3)cn2)cc1NC(=O)c1cnc(-c2ccc3c(c2)CC(=O)N3)o1` [Example 361], the concentration giving a half-maximal response (EC50) with M-07e cells is 100 to 1000 nM. Besides, the IC50 in assay [1] was in the range of 100 to 1000 nM.

Take `Cc1ncc(-c2ncc(OC(F)F)cn2)cc1NC(=O)c1cnc(-c2ccc3c(c2)CC(=O)N3)o1` [Example 362]: the EC50 in the assay on M-07e cells lay in the range of 100 to 1000 nM. Moreover, in assay [1], the IC50 was in the range of 100 to 1000 nM.

For the compound `Cc1ccc(-c2ncc(C3CC3)cn2)cc1NC(=O)c1cnc(-c2ccc3c(c2)CC(=O)N3)o1` [Example 363], the EC50 in the assay on M-07e cells is < 100 nM. In assay [1], the half-maximal inhibitory concentration (IC50) was < 100 nM.

In the case of `Cc1ccc(-c2ncc(C3CC3)cn2)cc1NC(=O)c1cnn2ccc(-c3c(C)nc(N)nc3C)cc12` [Example 365], the EC50 with M-07e cells is < 100 nM. Also, the IC50 in assay [1] is 100 to 1000 nM.

In the case of `Cc1ccc(-c2ncc(OC(F)F)cn2)cc1NC(=O)c1cnn2ccc(-c3c(C)nc(N)nc3C)cc12` [Example 366], in the assay with M-07e cells, the EC50 lay within 100 to 1000 nM. For the same compound, the half-maximal inhibitory concentration (IC50) in assay [1] was > 1000 nM.

Take `Cc1ccc(-c2ncc(OC(F)(F)F)cn2)cc1NC(=O)c1cnn2ccc(-c3c(C)nc(N)nc3C)cc12` [Example 367]: the 50% effective concentration (EC50) in the assay with M-07e cells lay in the range of 100 to 1000 nM. In addition, in assay [1], the 50% inhibitory concentration (IC50) lay in the range of 100 to 1000 nM.

On to `Cc1ncc(-c2ncc(C3CC3)cn2)cc1NC(=O)c1cnn2ccc(-c3c(C)nc(N)nc3C)cc12` [Example 371-1], for which the EC50 in the assay on M-07e cells was in the range of 100 to 1000 nM. Besides, the IC50 in assay [1] was > 1000 nM.

In the assay with M-07e cells, `Cc1ccc(-c2nnc([C@H]3C[C@@H]3F)o2)cc1NC(=O)c1cnc(-c2ccc3c(c2)CC(=O)N3)o1` [Example 374] registered an EC50 of 100 to 1000 nM. In assay [1], the half-inhibitory concentration (IC50) was in the range of 100 to 1000 nM.

Turning to `Cc1ncc(-c2cn(C3CC3)nn2)cc1NC(=O)c1cnn2ccc(N3CC4(C3)CC(O)(C(F)F)C4)cc12` [Example 377], the EC50 in the assay on M-07e cells was < 100 nM. In addition, the half-inhibitory concentration (IC50) in assay [1] is 100 to 1000 nM.

These data come from US20250059174A1, “Pharmaceutical Compounds and Compositions as C-Kit Kinase Inhibitors” (Enanta Pharmaceuticals, Inc., priority 2023, published 2025).
